The record followed here is patent US7312330B2, “Bicycloheteroarylamine compounds as ion channel ligands and uses thereof” (Renovis, Inc., priority 2003, dated 2007).

In this assay the target is hVR1 (Homo sapiens, UniProt Q8NER1). Description: Calcium imaging assay (Fura2) of VR1 antagonists, proton stimulation. Conditions: HEK 293 cells expressing hVR1; for % Inhibition @ 1 μM: calcium ion influx induced by proton stimulation (pH 5.7); for pIC50: calcium ion influx induced by proton stimulation. The format is cell-based. The text has this:
VR1 protein is a heat-gated cation channel that exchanges about 10 calcium ions for every sodium ion resulting in neuronal membrane depolarization and elevated intracellular calcium ion levels. Therefore the functional activity of compounds at the VR1 receptor may be determined by measuring changes in intracellular calcium levels in 293 cells expressing capsaicin-insensitive VR1 receptor variants. A dual wavelength ratiometric dye, Fura2, was used as an indicator of relative levels of calcium ions in a 96 well format using a bench top scanning fluorometer with integrated fluidics and temperature control (Flex Station, Molecular Devices).
A dual wavelength ratiometric dye, Fura2, was used as an indicator of relative levels of [Ca2+] in a 96 well format using a bench top scanning fluorometer with integrated fluidics and temperature control (Flex Station, Molecular Devices).
HEK 293 cells expressing hVR1 were grown on PDL coated 96-well black-walled plates, in the presence of a DMEM medium containing 5% Penstrep, 5% Glutamax, 200 ug/mL Hygromycin, 5 μg/mL Blasticide and 10% heat inactivated FBS. Prior to assay, the cells were loaded with 5 μg/mL Fura2 in normal saline solution at 37° C. for 40 minutes. Cells were then washed with normal saline to remove the dye.
The assay consists of two stages; a pre-treatment phase followed by a treatment phase. In the pretreatment phase, 50 μl of a compound solution was added to the cells. Immediately following, 50 μl of the test compound in the presence of agonist (a saline solution plus 10 mM citric acid bufferd to pH 5.7 with HCl) was added. Fura2 was excited at […] to indicate relative calcium concentration. Changes in wavelength measurements were made throughout the course of the experiment in 4 second intervals over a period of 3 minutes. The fluorescence ratio from the excitations at […] was recorded for analysis. Responses were measured as peak fluorescence ratio after compound-agonist addition minus baseline fluorescence ratio prior to treatment and were calculated for each concentration tested using the SoftMaxPro software. Data was expressed as percentage inhibition calculated as follows: […]
A dose response curve was then determined, from which the ID50 of each compound was calculated.

pIC50: −log10 of the molar value.

Chain of hVR1 (Q8NER1 whole entry): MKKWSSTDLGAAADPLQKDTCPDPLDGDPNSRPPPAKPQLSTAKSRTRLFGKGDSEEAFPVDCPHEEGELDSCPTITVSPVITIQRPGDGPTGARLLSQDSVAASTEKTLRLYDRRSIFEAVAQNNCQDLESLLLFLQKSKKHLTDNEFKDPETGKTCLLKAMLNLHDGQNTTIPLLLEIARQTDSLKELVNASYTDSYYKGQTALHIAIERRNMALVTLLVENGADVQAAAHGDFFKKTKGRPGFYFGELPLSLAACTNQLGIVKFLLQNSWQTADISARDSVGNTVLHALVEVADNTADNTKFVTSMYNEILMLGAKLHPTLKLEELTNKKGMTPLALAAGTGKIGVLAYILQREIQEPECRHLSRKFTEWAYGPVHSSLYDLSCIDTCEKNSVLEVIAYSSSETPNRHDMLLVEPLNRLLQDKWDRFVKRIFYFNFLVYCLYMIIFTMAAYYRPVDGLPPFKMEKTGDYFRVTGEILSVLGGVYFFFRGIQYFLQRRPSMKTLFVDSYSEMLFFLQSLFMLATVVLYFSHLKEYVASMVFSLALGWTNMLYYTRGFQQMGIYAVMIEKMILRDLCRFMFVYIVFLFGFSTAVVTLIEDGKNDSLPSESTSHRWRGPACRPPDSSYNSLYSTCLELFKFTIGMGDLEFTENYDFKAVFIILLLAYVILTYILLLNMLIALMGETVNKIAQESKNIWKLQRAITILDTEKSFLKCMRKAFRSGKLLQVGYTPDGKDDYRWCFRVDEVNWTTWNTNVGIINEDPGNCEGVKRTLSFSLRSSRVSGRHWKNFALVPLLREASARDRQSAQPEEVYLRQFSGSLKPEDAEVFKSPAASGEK

With `Cc1cccc(N2CCc3c(ncnc3Nc3ccc4c(c3)OCCO4)C2)c1` [Example 36, (2,3-Dihydro-benzo[1,4]dioxin-6-yl)-(7-m-tolyl-5,6,7,8-tetrahydro-pyrido[3,4-d]pyrimidin-4-yl)-amine], the “% Inhibition @ 1 μM” value is on record as “++ (compound exhibited 26-50% inhibition of calcium ion influx induced by proton stimulation)”.
Consider `Nc1nc2c(c(Nc3ccc(C(F)(F)F)cc3)n1)CCN(c1ncccc1Cl)C2` [Example 17, 7-(3-Chloro-pyridin-2-yl)-N^4-(4-trifluoromethyl-phenyl)-5,6,7,8-tetrahydro-pyrido[3,4-d]pyrimidine-2,4-diamine], for which the “% Inhibition @ 1 μM” value was “++++ (compound exhibited 76% or greater inhibition of calcium ion influx induced by proton stimulation)”.
As to `CC(=O)N1Cc2cc(Nc3ncnc4c3CCN(c3ncccc3Cl)C4)ccc2C(C)(C)C1` [Example 61], the pIC50 – broadly, the negative decadic logarithm of the IC50, by convention in mol/L – is < 6.00.
Take `FC(F)(F)c1cccc(CCNc2ncnc3c2CCN(c2ncccc2Cl)C3)c1` [Example 50, N-(3-(Trifluoromethyl)phenethyl)-7-(3-chloropyridin-2-yl)-5,6,7,8-tetrahydropyrido[3,4-d]pyrimidin-4-amine]: the “% Inhibition @ 1 μM” value is on record as “+ (compound exhibited 0-25% inhibition of calcium ion influx induced by proton stimulation)”.
As to `FC(F)(F)c1ccnc(N2CCc3c(ncnc3Nc3ccc4c(c3)OCCO4)C2)c1` [Example 71, 7-(4-(Trifluoromethyl)pyridin-2-yl)-5,6,7,8-tetrahydro-N-(2,3-dihydrobenzo[b][1,4]dioxin-7-yl)pyrido[3,4-d]pyrimidin-4-amine], the “% Inhibition @ 1 μM” value was “+ (compound exhibited 0-25% inhibition of calcium ion influx induced by proton stimulation)” and the pIC50 is < 6.00.
Take `Clc1ccc(CCNc2ncnc3c2CCN(c2ncccc2Cl)C3)cc1` [Example 40, N-(4-Chlorophenethyl)-7-(3-chloropyridin-2-yl)-5,6,7,8-tetrahydropyrido[3,4-d]pyrimidin-4-amine]: the “% Inhibition @ 1 μM” value was “+++ (compound exhibited 51-75% inhibition of calcium ion influx induced by proton stimulation)” and the pIC50 is < 6.00.
Regarding `Clc1cccnc1N1CCc2c(ncnc2Nc2ccccc2)C1` [Example 18, 7-(3-Chloropyridin-2-yl)-N-(phenyl)-5,6,7,8-tetrahydropyrido[3,4-d]pyrimidin-4-amine], the “% Inhibition @ 1 μM” value is given as “+ (compound exhibited 0-25% inhibition of calcium ion influx induced by proton stimulation)” and the pIC50 was < 6.00.
Take `FC(F)(F)c1ccc(Nc2ncnc3c2CCN(c2ccccc2)C3)cc1` [Example 44, 7-(Phenyl)-N-(4-(trifluoromethyl)phenyl)-5,6,7,8-tetrahydropyrido[3,4-d]pyrimidin-4-amine]: the “% Inhibition @ 1 μM” value is on record as “+ (compound exhibited 0-25% inhibition of calcium ion influx induced by proton stimulation)” and the pIC50 was < 6.00.
With `CC(=O)N1CC(C)(C)c2ccc(Nc3ncnc4c3CCN(c3ncccc3Cl)C4)cc21` [Example 68, 1-(6-(7-(3-Chloropyridin-2-yl)-5,6,7,8-tetrahydropyrido[3,4-d]pyrimidin-4-ylamino)-3,3-dimethylindolin-1-yl)ethanone], the “% Inhibition @ 1 μM” value was “+++ (compound exhibited 51-75% inhibition of calcium ion influx induced by proton stimulation)” and the pIC50 was 6.00 to 6.30.
Regarding `CS(=O)(=O)c1cccnc1N1CCc2c(ncnc2Nc2ccc(OC(F)F)cc2)C1` [Example 14, N-(4-(Difluoromethoxy)phenyl)-5,6,7,8-tetrahydro-7-(3-(methylsulfonyl)pyridin-2-yl)pyrido[3,4-d]pyrimidin-4-amine], the “% Inhibition @ 1 μM” value is on record as “+ (compound exhibited 0-25% inhibition of calcium ion influx induced by proton stimulation)”.
On to `CC(C)S(=O)(=O)c1cccnc1N1CCc2c(ncnc2Nc2ccc(C(F)(F)F)cc2)C1` [Example 16, N-(4-(Trifluoromethyl)phenyl)-5,6,7,8-tetrahydro-7-(3-(isopropylsulfonyl)pyridin-2-yl)pyrido[3,4-d]pyrimidin-4-amine], for which the pIC50 was < 6.00.
Take `CC1(C)C(=O)NC(=O)c2cc(Nc3ncnc4c3CCN(c3ncccc3Cl)C4)ccc21` [Example 58, 7-(7-(3-Chloropyridin-2-yl)-5,6,7,8-tetrahydropyrido[3,4-d]pyrimidin-4-ylamino)-4,4-dimethylisoquinoline-1,3(2H,4H)-dione]: the pIC50 was < 6.00.
Regarding `CSc1nc2c(c(Nc3ccc(C(F)(F)F)cc3)n1)CCN(c1ncccc1Cl)C2` [Example 24, [7-(3-Chloro-pyridin-2-yl)-2-methylsulfanyl-5,6,7,8-tetrahydro-pyrido[3,4-d]pyrimidin-4-yl]-(4-trifluoromethyl-phenyl)-amine], the pIC50 is 6.30 to 7.00.
On to `CC1(C)C(=O)Nc2cc(Nc3ncnc4c3CCN(c3ncccc3Cl)C4)ccc21` [Example 67, 6-(7-(3-Chloropyridin-2-yl)-5,6,7,8-tetrahydropyrido[3,4-d]pyrimidin-4-ylamino)-3,3-dimethylindolin-2-one], for which the pIC50 is < 6.00.
On to `CC(C)(C)c1ccc(Nc2ncnc3c2CCN(c2ncccc2Cl)C3)cn1` [Example 49, N-(6-tert-Butylpyridin-3-yl)-7-(3-chloropyridin-2-yl)-5,6,7,8-tetrahydropyrido[3,4-d]pyrimidin-4-amine], for which the “% Inhibition @ 1 μM” value is listed as “++++ (compound exhibited 76% or greater inhibition of calcium ion influx induced by proton stimulation)”.
Consider `COCc1nc2c(c(Nc3ccc(C(C)(C)C)cc3)n1)CCN(c1ncccc1C(F)(F)F)C2.Cl` [Example 6, (4-tert-Butyl-phenyl)-[2-methoxymethyl-7-(3-trifluoromethyl-pyridin-2-yl)-5,6,7,8-tetrahydro-pyrido[3,4-d]pyrimidin-4-yl]-amine hydrochloride], for which the “% Inhibition @ 1 μM” value is reported as “++++ (compound exhibited 76% or greater inhibition of calcium ion influx induced by proton stimulation)” and the pIC50 is > 7.00.
Consider `CN1CCC(C)(C)c2ccc(Nc3ncnc4c3CCN(c3ncccc3Cl)C4)cc21` [Example 60, 7-(3-Chloropyridin-2-yl)-5,6,7,8-tetrahydro-N-(1,2,3,4-tetrahydro-1,4,4-trimethylquinolin-7-yl)pyrido[3,4-d]pyrimidin-4-amine], for which the pIC50 is > 7.00.
For `FC(F)(F)Oc1ccc(Nc2ncnc3c2CCN(c2ncccc2C(F)(F)F)C3)cc1` [Example 79, 7-(3-(trifluoromethyl)pyridin-2-yl)-5,6,7,8-tetrahydro-N-(4-(trifluoromethoxy)-phenyl)pyrido[3,4-d]pyrimidin-4-amine], the “% Inhibition @ 1 μM” value is “++++ (compound exhibited 76% or greater inhibition of calcium ion influx induced by proton stimulation)” and the pIC50 is > 7.00.
With `CSc1nc2c(c(Nc3ccc(C(F)(F)F)cc3)n1)CCN(c1ncccc1S(C)(=O)=O)C2` [Example 63, N-(4-(Trifluoromethyl)phenyl)-5,6,7,8-tetrahydro-7-(3-(methylsulfonyl)pyridin-2-yl)-2-(methylthio)pyrido[3,4-d]pyrimidin-4-amine], the “% Inhibition @ 1 μM” value was “+++ (compound exhibited 51-75% inhibition of calcium ion influx induced by proton stimulation)” and the pIC50 was 6.30 to 7.00.
Consider `O=S(=O)(c1ccc(Nc2ncnc3c2CCN(c2ncccc2C(F)(F)F)C3)cc1)C(F)(F)F` [Example 76, 7-(3-(trifluoromethyl)pyridin-2-yl)-5,6,7,8-tetrahydro-N-(4-(trifluoromethylsulfonyl)-phenyl)pyrido[3,4-d]pyrimidin-4-amine], for which the “% Inhibition @ 1 μM” value is recorded as “++++ (compound exhibited 76% or greater inhibition of calcium ion influx induced by proton stimulation)” and the pIC50 was > 7.00.
The matching figures for `Fc1ccc(Nc2ncnc3c2CCN(c2ncccc2Cl)C3)cc1` [Example 19, 7-(3-Chloropyridin-2-yl)-N-(4-fluorophenyl)-5,6,7,8-tetrahydropyrido[3,4-d]pyrimidin-4-amine]: “+ (compound exhibited 0-25% inhibition of calcium ion influx induced by proton stimulation)” and < 6.00.
As for `CC(C)(C)c1ccc(Nc2ncnc3c2CCN(c2ncccc2C(F)(F)F)C3)cc1.Cl` [Example 4, N-(4-tert-Butylphenyl)-7-(3-(trifluoromethyl)pyridin-2-yl)-5,6,7,8-tetrahydropyrido[3,4-d]pyrimidin-4-amine hydrochloride], the “% Inhibition @ 1 μM” value was “++++ (compound exhibited 76% or greater inhibition of calcium ion influx induced by proton stimulation)” and the pIC50 was > 7.00.
`CN1CC(C)(C)c2ccc(Nc3ncnc4c3CCN(c3ncccc3Cl)C4)cc21` [Example 70, 7-(3-Chloropyridin-2-yl)-5,6,7,8-tetrahydro-N-(1,3,3-trimethylindolin-6-yl)pyrido[3,4-d]pyrimidin-4-amine]: the “% Inhibition @ 1 μM” value is “++++ (compound exhibited 76% or greater inhibition of calcium ion influx induced by proton stimulation)” and the pIC50 is > 7.00.
